Earlier results as cited in US20030211175A1, “Methods and compositions for dietary supplements” (priority 2002, published 2003).

For Chromium picolinate, the “reducing an elevated blood glucose level” value (human) is given as “moderately effective” and the toxicity (in vivo) is given as “considerable toxicity”.
